Blank lines part the entries; values can stand above or below the molecule they belong to.
What was measured:
[1] = test system: mouse DRG neurons; assay: Patch clamp rheobase of DRG neurons: protease-induced hyperexcitability of nociceptors; type: cell-based; conditions: for basal excitability of DRG neurons / initial hyperexcitability (0 min) caused by trypsin, NE or CS / persistent effects (30 min) of NE or CS on rheobase / persistent effects (30 min) of trypsin on rheobase: Dy4 30 μM, PS2 15 μM; for rheobase after protease: trypsin 50 nM 10 min, NE 390 nM 30 min, CS 500 nM 60 min, thrombin 50 nM 20 min, washed
[2] = test system: mice; assay: Somatic mechanical nociception, von Frey filaments after intraplantar injection; type: in vivo, mouse; conditions: for NE- and CS-induced allodynia / trypsin-induced mechanical allodynia: inhibitor 50 μM, 10 μl intraplantar; for NE- and CS-induced allodynia: 30 min before NE (1.2 μM) or CS (2.5 μM); for trypsin-induced mechanical allodynia: 30 min before trypsin (10 nM), at 1 and 2 h; for mechanical allodynia after intraplantar protease: WT mice, 10 μl trypsin (80 nM), NE (3.9 μM) or CS (5 μM), within 30 min, maintained for 180 min
Procedure: After 30 min, trypsin (10 nM), NE (1.2 μM), or CS (2.5 μM) (10 μl) was injected into the same paw.
Mice were acclimatized to the experimental apparatus, room and investigator for 1-2 h on 2 successive days before studies. Investigators were blinded to the test agents. Mice were sedated (5% isoflurane) for intraplantar injections. Dy4a, Dy4 inact, PS2, PS2 inact (all 50 μM) or vehicle (0.2% DMSO in 0.9% NaCl) (10 μl) was injected into the left hindpaw. After 30 min, trypsin (10 or 80 nM), CS (2.5 or 5 μM) or NE (1.2 or 3.9 μM) (all 10 μl) was injected into the same hindpaw. Mechanical nociceptive responses were evaluated by examining paw withdrawal to stimulation of the plantar surface of the hind-paw with calibrated von Frey filaments. von Frey scores were measured in triplicate to establish a baseline for each animal on the day before experiments, and were then measured for up to 4 h after protease administration. To assess edema, paw thickness was measured at the site of injection between the plantar and the dorsal surfaces of the paw using digital calipers. For evaluation of neutrophil infiltration, paws were collected at 4 h after intraplantar injection of trypsin (10 μl, 80 nM) or vehicle, fixed in 10% neutral buffered formalin for 48-72 h, bisected, and fixed in formalin for an additional 12 h. Tissue was decalcified in 10% 0.5 M EDTA for 6 days, washed in water, transferred to 70% ethanol for 24 h, and embedded in paraffin. Sections (5 μm) were incubated with neutrophil antibody Ly6G/6C clone NIMP-R14 (Abcam #ab2557, Lot #GR135037-1, AB_303154, 1:800, room temperature, 12 h). Sections were processed for chromogenic immunohistochemistry on a Ventana Medical Systems Discovery XT platform with online deparaffinization using Ventana's reagents. Ly6G/Ly6c was enzymatically treated with protease-3 (Ventana Medical Systems) for 8 min. Ly6G/Ly6c was detected with goat anti-rat horseradish peroxidase conjugated multimer incubated for 16 min.

[3] = biological target: T1, mPAR2-GFP (Mus musculus, UniProt P55086); assay: PAR2 trafficking (endocytosis) in DRG neurons; type: cell-based; conditions: for mPAR2-GFP endocytosis: protease 100 nM, 30 min
T1 construct: expressed in transfected cells; host or cells: mouse (C57BL/6) DRG neurons, nucleofection
T1 sequence (P55086 26-399): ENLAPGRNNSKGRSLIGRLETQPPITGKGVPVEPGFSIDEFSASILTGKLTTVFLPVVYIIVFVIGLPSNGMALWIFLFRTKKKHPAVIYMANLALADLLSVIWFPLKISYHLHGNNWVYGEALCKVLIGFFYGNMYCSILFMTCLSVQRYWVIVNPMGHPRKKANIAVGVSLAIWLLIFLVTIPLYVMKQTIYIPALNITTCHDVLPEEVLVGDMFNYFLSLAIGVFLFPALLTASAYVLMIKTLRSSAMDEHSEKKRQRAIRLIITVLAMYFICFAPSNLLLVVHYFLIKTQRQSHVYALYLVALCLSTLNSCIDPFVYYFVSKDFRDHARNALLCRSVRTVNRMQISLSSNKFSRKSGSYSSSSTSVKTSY
Procedure: To assess endocytosis of PAR2 in nociceptors, mouse (m) PAR2-GFP was transfected in to mouse DRG neurons. In vehicle-treated neurons, mPAR2-GFP was detected at the plasma membrane and in intracellular compartments that may correspond to stores of PAR2 in the Golgi apparatus (FIG. 4A) (Jensen D. D., et al. J Biol Chem. 2016, 291(21): 11285-11299). Trypsin, but not NE or CS (100 nM, 30 min), induced mPAR2-GFP endocytosis (FIG. 4A, B). Dy4, but not Dy4 inact, inhibited trypsin-induced endocytosis of mPAR2-GFP (FIG. 4C). To determine whether PAR2 recruits βARRs, which mediate endocytosis, Bioluminescence Resonance Energy Transfer (BRET) sensors were expressed for PAR2-RLuc8 (donor) and βARR2-YFP (acceptor) in mouse DRG neurons. Trypsin, but not NE or CS, increased PAR2-RLuc8/βARR2-YFP BRET (FIG. 4D).
DRG were collected from C57BL/6 mice and Sprague-Dawley rats (all levels). DRG were incubated with collagenase IV (2 mg/ml) and dispase II (1 mg/ml) for 30 min (mice) and 45 min (rats) at 37° C. DRG were dispersed by trituration with a fire-polished Pasteur pipette. Dissociated neurons were transfected with mPAR2-GFP (1 μg), the FRET biosensors CytoEKAR, NucEKAR, pmCKAR or CytoCKAR (all […]), or with the BRET biosensors PAR2-RLuc8 (125 ng) and βARR2-FYP (475 ng) using the Lonza 4D-Nucleofector X unit according to the manufacturer's instructions. […]
Mouse DRG neurons expressing mPAR2-GFP were incubated with trypsin (10 nM), CS (100 nM), NE (100 nM) or vehicle (30 min, 37° C.), and were fixed (4% paraformaldehyde, 20 min, 4C). NeuN was detected by indirect immunofluorescence as described (Jensen, D. D. et al., Sci Transl Med. 2017, 9(392), eaal3447). […] PAR2 internalization in NeuN-positive neurons was quantified using ImageJ software. The border of the cytoplasm in the neuronal soma was defined by NeuN fluorescence. mPAR2-GFP fluorescence within 0.5 μm of the border was defined as plasma membrane-associated receptor. The ratio of plasma membrane to cytosolic mPAR2-GFP was determined.

Molecule: Cc1nc(C(=O)N2CCN(C(=O)c3cn4nc(-c5ccc(F)cc5)cc(C(C)(C)C)c4n3)C(C)(C)C2)n[nH]1 [Compound I-343, (8-(tert-butyl)-6-(4-fluorophenyl)imidazo[1,2-b]pyridazin-2-yl)(2,2-dimethyl-4-(5-methyl-1H-1,2,4-triazole-3-carbonyl)piperazin-1-yl)methanone]
decrease in rheobase 0 min after NE [1]: prevented
decrease in rheobase 0 min after trypsin ([1]; 100 nM, 300 nM): prevented
decrease in rheobase 30 min after CS ([1]; 10 μM): prevented
decrease in rheobase 30 min after NE ([1]; 10 μM): not
decrease in rheobase 30 min after trypsin ([1]; 10 μM): prevented

trypsin-induced endocytosis of mPAR2-GFP ([3]; preincubated with Dy4 or Dy4 inact): inhibited
Molecule: O=C(N/N=C/c1cc(O)c(O)cc1O)c1cc2ccccc2cc1O [Dy4]
NE- and CS-induced allodynia [2]: unchanged or minimally affected
trypsin-induced mechanical allodynia [2]: inhibited
basal excitability of DRG neurons [1]: did not affect
initial hyperexcitability (0 min) caused by trypsin, NE or CS [1]: did not affect
persistent effects (30 min) of NE or CS on rheobase [1]: not
persistent effects (30 min) of trypsin on rheobase [1]: abolished

Molecule: O=C1NC(=NS(=O)(=O)c2cccc3ccccc23)S/C1=C\c1ccc(Br)cc1 [PS2]
NE- and CS-induced allodynia [2]: unchanged or minimally affected
trypsin-induced mechanical allodynia [2]: inhibited
basal excitability of DRG neurons [1]: did not affect
initial hyperexcitability (0 min) caused by trypsin, NE or CS [1]: did not affect
persistent effects (30 min) of NE or CS on rheobase [1]: not
persistent effects (30 min) of trypsin on rheobase [1]: abolished

mPAR2-GFP endocytosis [3]: not
Molecule: NE: protease (elastase) activating PAR2 by biased mechanisms
mechanical allodynia after intraplantar protease [2]: induced mechanical allodynia
rheobase after protease [1]: decreased rheobase at 0 and 30 min

mPAR2-GFP endocytosis [3]: induced
Molecule: trypsin
mechanical allodynia after intraplantar protease [2]: induced mechanical allodynia
rheobase after protease [1]: decreased rheobase at 0 and 30 min

Reference: patent US20200383985A1, “Inhibitors of Protease Activated Receptor-2” (Endosome Therapeutics, Inc., priority 2017, published 2020)
